Where “and” joins values, the source holds several entries; their conditions need not be identical. Equal values may be shown once.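 96-well plates; 48 h exposure; 5 concentrations. Endpoints by linear interpolation between flanking doses. Not reached: highest tested concentration assigned. At the GI50, growth is halved. TGI: total growth inhibition.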
Key:
Assay in all cases: NCI tumour cell line growth inhibition, 48 h
U251 CNS = system: U251 CNS
SK-MEL-5 melanoma = system: SK-MEL-5 melanoma
SF-539 CNS = system: SF-539 CNS
MDA-MB-231 breast = system: MDA-MB-231 breast
786-0 renal = system: 786-0 renal
MCF7 breast = system: MCF7 breast
EKVX NSCLC = system: EKVX NSCLC
HOP-62 NSCLC = system: HOP-62 NSCLC
MDA-MB-435 = system: MDA-MB-435
SK-OV-3 ovarian = system: SK-OV-3 ovarian
DU-145 prostate = system: DU-145 prostate
SF-295 CNS = system: SF-295 CNS
OVCAR-4 ovarian = system: OVCAR-4 ovarian
HT29 colon = system: HT29 colon
NCI-H460 lung = system: NCI-H460 lung
NCI-H522 lung = system: NCI-H522 lung
MDA-N = system: MDA-N
M14 melanoma = system: M14 melanoma
IGROV1 ovarian = system: IGROV1 ovarian
A549 NSCLC = system: A549 NSCLC
UACC-62 melanoma = system: UACC-62 melanoma
HS 578T breast = system: HS 578T breast
SNB-75 CNS = system: SNB-75 CNS
HL-60(TB) leukemia = system: HL-60(TB) leukemia
RPMI-8226 leukemia = system: RPMI-8226 leukemia
SK-MEL-2 melanoma = system: SK-MEL-2 melanoma
CAKI-1 renal = system: CAKI-1 renal
HOP-92 NSCLC = system: HOP-92 NSCLC
OVCAR-3 ovarian = system: OVCAR-3 ovarian
KM12 colon = system: KM12 colon
NCI-H226 lung = system: NCI-H226 lung
A498 renal = system: A498 renal
SK-MEL-28 melanoma = system: SK-MEL-28 melanoma
OVCAR-8 ovarian = system: OVCAR-8 ovarian
T-47D breast = system: T-47D breast
COLO 205 colon = system: COLO 205 colon
HCT-116 colon = system: HCT-116 colon
HCT-15 colon = system: HCT-15 colon
MOLT-4 leukemia = system: MOLT-4 leukemia
RXF 393 renal = system: RXF 393 renal
CCRF-CEM leukemia = system: CCRF-CEM leukemia
UACC-257 melanoma = system: UACC-257 melanoma
MALME-3M melanoma = system: MALME-3M melanoma
SR leukemia = system: SR leukemia
NCI/ADR-RES ovarian = system: NCI/ADR-RES ovarian
SW-620 colon = system: SW-620 colon
LOX IMVI melanoma = system: LOX IMVI melanoma
TK-10 renal = system: TK-10 renal
BT-549 breast = system: BT-549 breast
SN12C renal = system: SN12C renal
OVCAR-5 ovarian = system: OVCAR-5 ovarian
UO-31 renal = system: UO-31 renal
SNB-19 CNS = system: SNB-19 CNS
SF-268 CNS = system: SF-268 CNS
NCI-H23 lung = system: NCI-H23 lung
K-562 leukemia = system: K-562 leukemia
HCC-2998 colon = system: HCC-2998 colon
PC-3 prostate = system: PC-3 prostate

SMILES: NC(=S)N/N=C/c1ncccc1N
- GI50 (U251 CNS): 0.659 µM
- TGI (U251 CNS): > 100 µM
- GI50 (SK-MEL-5 melanoma): 0.534 µM
- TGI (SK-MEL-5 melanoma): 22.3 µM and > 10 µM
- TGI (SF-539 CNS): 1.23 µM and 0.673 µM
- GI50 (MDA-MB-231 breast): 3.79 µM
- TGI (MDA-MB-231 breast): > 100 µM
- GI50 (786-0 renal): 0.419 µM
- TGI (786-0 renal): > 33.6 µM
- GI50 (MCF7 breast): 0.32 µM
- TGI (MCF7 breast): 27.2 µM and > 10 µM
- GI50 (EKVX NSCLC): 5.13 µM
- TGI (EKVX NSCLC): > 100 µM
- GI50 (HOP-62 NSCLC): 0.739 µM
- TGI (HOP-62 NSCLC): 13.1 µM and 9.78 µM
- GI50 (MDA-MB-435): 5.17 µM
- TGI (MDA-MB-435): > 100 µM
- GI50 (SK-OV-3 ovarian): 3.24 µM
- TGI (SK-OV-3 ovarian): 51.3 µM and > 10 µM
- GI50 (DU-145 prostate): 1.04 µM
- GI50 (SF-295 CNS): 0.654 µM
- TGI (SF-295 CNS): 10.7 µM and 5.07 µM
- GI50 (OVCAR-4 ovarian): 3.57 µM
- TGI (OVCAR-4 ovarian): > 50 µM
- GI50 (HT29 colon): 2.19 µM
- TGI (HT29 colon): > 63.4 µM
- GI50 (NCI-H460 lung): 0.654 µM
- TGI (NCI-H460 lung): 12.6 µM and > 10 µM
- GI50 (NCI-H522 lung): 1.71 µM
- TGI (NCI-H522 lung): 6.62 µM and > 10 µM
- TGI (MDA-N): > 10 µM
- TGI (M14 melanoma): 5.27 µM and 2.62 µM
- GI50 (IGROV1 ovarian): 0.807 µM
- TGI (IGROV1 ovarian): > 100 µM
- GI50 (A549 NSCLC): 3.16 µM
- TGI (A549 NSCLC): > 100 µM
- GI50 (UACC-62 melanoma): 0.338 µM
- TGI (UACC-62 melanoma): 7.67 µM and > 10 µM
- GI50 (HS 578T breast): 37.5 µM
- TGI (HS 578T breast): > 100 µM
- GI50 (SNB-75 CNS): 0.674 µM
- TGI (SNB-75 CNS): 25.3 µM and > 8.46 µM
- GI50 (HL-60(TB) leukemia): 0.867 µM
- TGI (HL-60(TB) leukemia): 6.45 µM and > 6.69 µM
- GI50 (RPMI-8226 leukemia): 1.45 µM
- TGI (RPMI-8226 leukemia): > 100 µM
- GI50 (SK-MEL-2 melanoma): 75.7 µM
- TGI (SK-MEL-2 melanoma): > 100 µM
- GI50 (CAKI-1 renal): 0.357 µM
- TGI (CAKI-1 renal): > 38.5 µM
- GI50 (HOP-92 NSCLC): > 87.2 µM
- TGI (HOP-92 NSCLC): > 100 µM
- GI50 (OVCAR-3 ovarian): 2.54 µM
- TGI (OVCAR-3 ovarian): > 56.6 µM
- GI50 (KM12 colon): 5.38 µM
- TGI (KM12 colon): > 100 µM
- GI50 (NCI-H226 lung): 1.01 µM
- TGI (NCI-H226 lung): 8.24 µM and > 10 µM
- TGI (A498 renal): > 73.1 µM
- GI50 (SK-MEL-28 melanoma): 12.6 µM
- TGI (SK-MEL-28 melanoma): > 100 µM
- TGI (OVCAR-8 ovarian): > 100 µM
- GI50 (T-47D breast): 1.92 µM
- TGI (T-47D breast): 23.2 µM and > 10 µM
- GI50 (COLO 205 colon): 2.54 µM
- TGI (COLO 205 colon): 12.1 µM and > 10 µM
- GI50 (HCT-116 colon): 1.16 µM
- TGI (HCT-116 colon): > 33.7 µM
- GI50 (HCT-15 colon): 3.14 µM
- TGI (HCT-15 colon): > 100 µM
- GI50 (MOLT-4 leukemia): 1.04 µM
- TGI (MOLT-4 leukemia): 44.8 µM and > 10 µM
- GI50 (RXF 393 renal): 0.489 µM
- TGI (RXF 393 renal): > 47.5 µM
- GI50 (CCRF-CEM leukemia): 1.14 µM
- TGI (CCRF-CEM leukemia): > 58.4 µM
- TGI (UACC-257 melanoma): > 80.7 µM
- GI50 (MALME-3M melanoma): 3 µM
- TGI (MALME-3M melanoma): > 90.5 µM
- TGI (SR leukemia): 18.9 µM and > 10 µM
- GI50 (NCI/ADR-RES ovarian): 1.66 µM
- TGI (NCI/ADR-RES ovarian): 14.9 µM and 8.77 µM
- GI50 (SW-620 colon): 1.45 µM
- TGI (SW-620 colon): > 48.4 µM
- GI50 (LOX IMVI melanoma): 0.439 µM
- TGI (LOX IMVI melanoma): 8.25 µM and > 10 µM
- GI50 (TK-10 renal): 50.5 µM
- TGI (TK-10 renal): > 100 µM
- GI50 (BT-549 breast): 2.96 µM
- TGI (BT-549 breast): > 100 µM
- GI50 (SN12C renal): 0.789 µM
- TGI (SN12C renal): 16.5 µM and > 10 µM
- GI50 (OVCAR-5 ovarian): 5.98 µM
- TGI (OVCAR-5 ovarian): > 100 µM
- GI50 (UO-31 renal): 0.293 µM
- TGI (UO-31 renal): 3.69 µM and 1.41 µM
- GI50 (SNB-19 CNS): 1.78 µM
- TGI (SNB-19 CNS): > 84.9 µM
- GI50 (SF-268 CNS): 0.731 µM
- TGI (SF-268 CNS): 51.9 µM and > 8.29 µM
- TGI (NCI-H23 lung): 6.83 µM and > 3.07 µM
- GI50 (K-562 leukemia): 4.82 µM
- TGI (K-562 leukemia): > 93.4 µM
- GI50 (HCC-2998 colon): 1.14 µM
- TGI (HCC-2998 colon): > 100 µM
- GI50 (PC-3 prostate): 6.5 µM
- TGI (PC-3 prostate): > 100 µM
